Non-standard residues stand in square brackets, D forms with d. Residues, ends and D or L forms follow the SMILES beside them. dPro(4R-(4-pyridylmethyl)) = O=C(O)[C@H]1C[C@@H](Cc2ccncc2)CN1; dPro(3S-(4-Br-benzyl)) = O=C(O)[C@@H]1NCC[C@@H]1Cc1ccc(Br)cc1; Trp(βS-Me,4-F) = C[C@@H](c1c[nH]c2cccc(F)c12)[C@H](N)C(=O)O; Bip(4'-COOH) = N[C@@H](Cc1ccc(-c2ccc(C(=O)O)cc2)cc1)C(=O)O; Ala(1-bicyclo(1.1.1)pentyl) = N[C@@H](CC12CC(C1)C2)C(=O)O; 1Nal(3S-Me) = C[C@@H](c1cccc2ccccc12)[C@H](N)C(=O)O; Ala(pyrimidin-5-yl) = N[C@@H](Cc1cncnc1)C(=O)O; Phe(4-COOH) = N[C@@H](Cc1ccc(C(=O)O)cc1)C(=O)O; Pro(cis-4-F) = O=C(O)[C@@H]1C[C@H](F)CN1; d(αMeD) = C[C@@](N)(CC(=O)O)C(=O)O; 4Pal = N[C@@H](Cc1ccncc1)C(=O)O; Dab = NCC[C@H](N)C(=O)O; Aib = CC(C)(N)C(=O)O

In the experiment the target is T1, IL-1β (Homo sapiens, UniProt P01584).
T1 construct: purchased BioLegend 579404
T1 sequence (P01584 117-269): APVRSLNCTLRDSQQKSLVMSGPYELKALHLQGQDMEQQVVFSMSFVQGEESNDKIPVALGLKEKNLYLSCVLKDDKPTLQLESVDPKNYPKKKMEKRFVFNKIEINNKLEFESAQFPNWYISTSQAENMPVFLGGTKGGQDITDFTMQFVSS
The experiment can be described thus: IL-6 assay in MRC5 cells: inhibition of IL-1β induced IL-6 secretion (AlphaLISA). The format is cell-based. The conditions noted are these: inhibition of IL-1β induced IL-6 secretion in MRC5 cells; read-out: MRC5 IC50. An outline of the steps:
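Compound was pre-incubated 1 h at ambient temperature with recombinant human IL-1β at 2λ EC80 before adding human lung fibroblast MRC5 cells (3000/well) in EMEM with 0.025% BSA. After overnight culture at 37 °C, 5% CO2, secreted IL-6 in conditioned medium was measured by AlphaLISA; IC50 from 4-parameter logistic fits.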
With `C[C@@H](c1c[nH]c2cccc(F)c12)[C@@H]1NC(=O)[C@@H]2C[C@H](F)CN2C(=O)CNC(=O)[C@H](Cc2ccc(C(=O)O)cc2)NC(=O)[C@H](Cc2ccncc2)NC(=O)[C@H](Cc2ccc(-c3ccc(C(=O)O)cc3)cc2)NC(=O)[C@H]2[C@@H](Cc3ccc(Br)cc3)CCN2C(=O)CNC(=O)[C@H](CCCCN)NC(=O)[C@H](CCC(N)=O)NC(=O)[C@H](Cc2cncnc2)NC(=O)C(C)(C)NC(=O)[C@H](Cc2c[nH]c3ccccc23)NC(=O)[C@H](CCC(=O)O)NC(=O)C(C)(C)NC1=O` [Example 152] (cyclo([Bip(4'-COOH)][4Pal][Phe(4-COOH)]G[Pro(cis-4-F)][Trp(βS-Me,4-F)][Aib]EW[Aib][Ala(pyrimidin-5-yl)]QKG[dPro(3S-(4-Br-benzyl))])), the 50% inhibitory concentration (IC50) (usually the concentration needed to halve the response being measured) is 0.031 nM.

Consider `C[C@@H](c1cccc2ccccc12)[C@@H]1NC(=O)[C@@H]2C[C@H](F)CN2C(=O)CNC(=O)[C@H](Cc2ccc(C(=O)O)cc2)NC(=O)[C@H](Cc2ccncc2)NC(=O)[C@H](Cc2ccc(-c3ccc(C(=O)O)cc3)cc2)NC(=O)[C@H]2[C@@H](Cc3ccc(Br)cc3)CCN2C(=O)CNC(=O)[C@H](CCN)NC(=O)[C@H](CCC(N)=O)NC(=O)[C@H](Cc2cncnc2)NC(=O)C(C)(C)NC(=O)[C@H](Cc2c[nH]c3ccccc23)NC(=O)[C@H](CCC(=O)O)NC(=O)C(C)(C)NC1=O` [Example 153] (cyclo([Bip(4'-COOH)][4Pal][Phe(4-COOH)]G[Pro(cis-4-F)][1Nal(3S-Me)][Aib]EW[Aib][Ala(pyrimidin-5-yl)]Q[Dab]G[dPro(3S-(4-Br-benzyl))])), for which the IC50 came out at 0.019 nM.

As to `C[C@@H](c1c[nH]c2cccc(F)c12)[C@@H]1NC(=O)[C@@H]2C[C@H](F)CN2C(=O)CNC(=O)[C@H](Cc2ccc(C(=O)O)cc2)NC(=O)[C@H](Cc2ccncc2)NC(=O)[C@H](Cc2ccc(-c3ccc(C(=O)O)cc3)cc2)NC(=O)[C@H]2C[C@@H](Cc3ccncc3)CN2C(=O)CNC(=O)[C@H](CCN)NC(=O)[C@H](CCC(N)=O)NC(=O)[C@H](Cc2cncnc2)NC(=O)[C@@](C)(CC(=O)O)NC(=O)[C@H](Cc2c[nH]c3ccccc23)NC(=O)[C@H](CO)NC(=O)C(C)(C)NC1=O` [Example 154] (cyclo([Bip(4'-COOH)][4Pal][Phe(4-COOH)]G[Pro(cis-4-F)][Trp(βS-Me,4-F)][Aib]SW[d(αMeD)][Ala(pyrimidin-5-yl)]Q[Dab]G[dPro(4R-(4-pyridylmethyl))])), the IC50 amounted to 0.011 nM.

On to `C[C@@H](c1c[nH]c2cccc(F)c12)[C@@H]1NC(=O)[C@@H]2C[C@H](F)CN2C(=O)CNC(=O)[C@H](Cc2ccc(C(=O)O)cc2)NC(=O)[C@H](CC23CC(C2)C3)NC(=O)[C@H](Cc2ccc(-c3ccc(C(=O)O)cc3)cc2)NC(=O)[C@H]2C[C@@H](Cc3ccncc3)CN2C(=O)CNC(=O)[C@H](CCN)NC(=O)[C@H](CCC(N)=O)NC(=O)[C@H](Cc2cncnc2)NC(=O)[C@@](C)(CC(=O)O)NC(=O)[C@H](Cc2c[nH]c3ccccc23)NC(=O)[C@H](CO)NC(=O)C(C)(C)NC1=O` [Example 155] (cyclo([Bip(4'-COOH)][Ala(1-bicyclo(1.1.1)pentyl)][Phe(4-COOH)]G[Pro(cis-4-F)][Trp(βS-Me,4-F)][Aib]SW[d(αMeD)][Ala(pyrimidin-5-yl)]Q[Dab]G[dPro(4R-(4-pyridylmethyl))])), for which the IC50 is 0.011 nM.

For `C[C@@H](c1c[nH]c2cccc(F)c12)[C@@H]1NC(=O)[C@@H]2C[C@H](F)CN2C(=O)CNC(=O)[C@H](Cc2ccc(C(=O)O)cc2)NC(=O)[C@H](Cc2ccncc2)NC(=O)[C@H](Cc2ccc(-c3ccc(C(=O)O)cc3)cc2)NC(=O)[C@H]2C[C@@H](Cc3ccncc3)CN2C(=O)CNC(=O)[C@H](CO)NC(=O)[C@H](CCC(N)=O)NC(=O)[C@H](Cc2cncnc2)NC(=O)[C@@](C)(CC(=O)O)NC(=O)[C@H](Cc2c[nH]c3ccccc23)NC(=O)[C@H](CO)NC(=O)C(C)(C)NC1=O` [Example 156] (cyclo([Bip(4'-COOH)][4Pal][Phe(4-COOH)]G[Pro(cis-4-F)][Trp(βS-Me,4-F)][Aib]SW[d(αMeD)][Ala(pyrimidin-5-yl)]QSG[dPro(4R-(4-pyridylmethyl))])), the half-maximal inhibitory concentration (IC50) is 0.015 nM.

The record behind these values is patent US20260242419A1, “A CYCLIC PEPTIDE FOR TRAPPING INTERLEUKIN-1 BETA” (Merck Sharp & Dohme LLC, priority 2023, published 2026).
